Test results as given in US8178506B2, “Oligomeric compounds and compositions for use in modulation of small non-coding RNAs” (Regulus Therapeutics Inc., priority 2003, dated 2012).
In the oligonucleotide strings, read from the 5' end, every base follows the letter of its sugar. An asterisk marks phosphorothioate; unmarked linkages are phosphodiester. Other units and linkages are bracketed, terminal groups are in braces. A string of capitals states the bases alone. e = 2'-O-(2-methoxyethyl) (MOE); [5mC] = 5-methylcytosine; d = 2'-deoxy (DNA)

Key:
follistatin = experiment: Follistatin mRNA expression in HepG2 cells; type: cell-based, human; conditions: for Follistatin mRNA: four hours, UTC = 100; for Follistatin mRNA expression: Experiment 2, insulin treated: HepG2 cells transfected with oligomeric compound, 1 nM insulin for four hours, UTC + 1 nM insulin = 100
PEPCK-c = PEPCK-c mRNA expression in HepG2 cells; type: cell-based, human; conditions: for PEPCKc mRNA: four hours, UTC = 100; for PEPCKc mRNA expression: Experiment 2, insulin treated: HepG2 cells transfected with oligomeric compound, 1 nM insulin for four hours, UTC + 1 nM insulin = 100
IL-12 mRNA = IL-12 mRNA in LPS-activated primary murine macrophages; type: cell-based, mouse; conditions: normalized to LPS-treated cells without oligomeric compound; for IL-12 mRNA expression, −IFN % UTC: 300 nM oligomeric compound and LPS, no IFN-gamma pretreatment, single experiment; for IL-12 mRNA expression, +IFN % UTC: 300 nM oligomeric compound, stimulation with IFN-gamma and LPS, average of 2 experiments
[1] = Experiment 1, basal (no insulin), HepG2, 100 nM oligomeric compound
[2] = Experiment 2, 1 nM insulin treated, HepG2, 100 nM oligomeric compound
[3] = HepG2 cells, Experiment 1, basal (no insulin)
[4] = Experiment 3, basal (no insulin), HepG2 cells, 48 hours post-transfection
[5] = Experiment 4, insulin-sensitization: HepG2 cells treated with 1 nM insulin for four hours, 48 h post-transfection, mRNA by real-time PCR

Substance | Follistatin (% UTC) (follistatin; [1]) | Follistatin (% UTC) (follistatin; [2]) | PEPCK-c (% UTC) (PEPCK-c; [1]) | PEPCK-c (% UTC) (PEPCK-c; [2]) | Follistatin mRNA (follistatin; [3]) | PEPCKc mRNA (PEPCK-c; [3]) | other results
327876 (antisense eA*eA*e[5mC]*eA*e[5mC]*eT*eG*eA*eT*eT*eT*e[5mC]*eA*eA*eA*eT*eG*eG*eT*eG*e[5mC]*eT*eA) [compound 327876] | 104 | 138 | 119 | 176 | – | – | IL-12 mRNA expression, −IFN % UTC (IL-12 mRNA): 194 % UTC; IL-12 mRNA expression, +IFN % UTC (IL-12 mRNA): 9 % UTC
327887 (antisense eG*e[5mC]*eG*eA*e[5mC]*e[5mC]*eA*eT*eG*eG*e[5mC]*eT*eG*eT*eA*eG*eA*e[5mC]*eT*eG*eT*eT*eA) [compound 327887] | – | – | – | – | 113 | 83 | IL-12 mRNA expression, −IFN % UTC (IL-12 mRNA): 287 % UTC; IL-12 mRNA expression, +IFN % UTC (IL-12 mRNA): 33 % UTC
327889 (antisense eG*eT*eG*eG*eT*eA*eA*eT*e[5mC]*e[5mC]*e[5mC]*eT*eG*eG*e[5mC]*eA*eA*eT*eG*eT*eG*eA*eT) [compound 327889] | 56 | 72 | 137 | 202 | – | – | IL-12 mRNA expression, −IFN % UTC (IL-12 mRNA): 153 % UTC; IL-12 mRNA expression, +IFN % UTC (IL-12 mRNA): 10 % UTC
327890 (antisense eA*eG*e[5mC]*eA*e[5mC]*eA*eA*eA*e[5mC]*eT*eA*e[5mC]*eT*eA*e[5mC]*e[5mC]*eT*e[5mC]*eA) [compound 327890] | 78 | 115 | 85 | 113 | – | – | IL-12 mRNA expression, −IFN % UTC (IL-12 mRNA): 183 % UTC; IL-12 mRNA expression, +IFN % UTC (IL-12 mRNA): 94 % UTC
327893 (antisense eA*eA*e[5mC]*e[5mC]*eA*e[5mC]*eA*e[5mC]*eA*eA*e[5mC]*e[5mC]*eT*eA*e[5mC]*eT*eA*e[5mC]*e[5mC]*eT*e[5mC]*eA) [compound 327893] | – | – | – | – | 93 | 81 | IL-12 mRNA expression, −IFN % UTC (IL-12 mRNA): 117 % UTC; IL-12 mRNA expression, +IFN % UTC (IL-12 mRNA): 52 % UTC
327899 (antisense e[5mC]*eA*eG*eT*eG*eA*eA*eT*eT*e[5mC]*eT*eA*e[5mC]*e[5mC]*eA*eG*eT*eG*e[5mC]*e[5mC]*eA*eT*eA) [compound 327899] | – | – | – | – | 66 | 42 | IL-12 mRNA expression, −IFN % UTC (IL-12 mRNA): 164 % UTC; IL-12 mRNA expression, +IFN % UTC (IL-12 mRNA): 7 % UTC
327901 (antisense eT*eG*eA*eG*e[5mC]*eT*eA*e[5mC]*eA*eG*eT*eG*e[5mC]*eT*eT*e[5mC]*eA*eT*e[5mC]*eT*e[5mC]*eA) [compound 327901] | 93 | 135 | 119 | 117 | – | – | IL-12 mRNA expression, −IFN % UTC (IL-12 mRNA): 225 % UTC; IL-12 mRNA expression, +IFN % UTC (IL-12 mRNA): 9 % UTC
327905 (antisense e[5mC]*eA*eG*eA*e[5mC]*eT*e[5mC]*e[5mC]*eG*eG*eT*eG*eG*eA*eA*eT*eG*eA*eA*eG*eG*eA) [compound 327905] | 104 | 148 | 129 | 147 | – | – | –
327911 (antisense eG*e[5mC]*eT*eA*e[5mC]*e[5mC]*eT*eG*e[5mC]*eA*e[5mC]*eT*eG*eT*eA*eA*eG*e[5mC]*eA*e[5mC]*eT*eT*eT*eT) [compound 327911] | – | – | – | – | 81 | 52 | Follistatin mRNA expression (follistatin): 71; PEPCKc mRNA expression (PEPCK-c): 78
327916 (antisense eT*eG*eG*e[5mC]*eA*eT*eT*e[5mC]*eA*e[5mC]*e[5mC]*eG*e[5mC]*eG*eT*eG*e[5mC]*e[5mC]*eT*eT*eA*eA) [compound 327916] | – | – | – | – | 108 | 88 | Follistatin mRNA expression (follistatin): 98; PEPCKc mRNA expression (PEPCK-c): 88
327918 (antisense e[5mC]*eT*eA*eG*eT*eA*e[5mC]*eA*eT*e[5mC]*eA*eT*e[5mC]*eT*eA*eT*eA*e[5mC]*eT*eG*eT*eA) [compound 327918] | – | – | – | – | 75 | 81 | Follistatin mRNA expression (follistatin): 76; PEPCKc mRNA expression (PEPCK-c): 107
327922 (antisense eT*e[5mC]*eA*eG*eT*eT*eT*eT*eG*e[5mC]*eA*eT*eG*eG*eA*eT*eT*eT*eG*e[5mC]*eA*e[5mC]*eA) [compound 327922] | 57 | 61 | 77 | 76 | – | – | –
327933 (antisense eA*eA*eG*eG*eG*eA*eT*eT*e[5mC]*e[5mC]*eT*eG*eG*eG*eA*eA*eA*eA*e[5mC]*eT*eG*eG*eA*e[5mC]) [compound 327933] | 112 | 185 | 118 | 115 | – | – | –
327934 (antisense eG*eG*eT*eA*e[5mC]*eA*eA*eT*e[5mC]*eA*eA*e[5mC]*eG*eG*eT*e[5mC]*eG*eA*eT*eG*eG*eT) [compound 327934] | 140 | 103 | 99 | 105 | – | – | –
327954 (antisense eA*e[5mC]*eA*eA*eA*eG*eT*eT*e[5mC]*eT*eG*eT*eG*eA*eT*eG*e[5mC]*eA*e[5mC]*eT*eG*eA) [compound 327954] | 100 | 105 | 79 | 102 | – | – | –
328114 (antisense eA*eA*eT*e[5mC]*eT*e[5mC]*eA*eT*eT*eT*eT*e[5mC]*eA*eT*eA*e[5mC]*eT*eT*eG*e[5mC]*eA) [compound 328114] | – | – | – | – | – | – | Follistatin mRNA expression (follistatin): 81; PEPCKc mRNA expression (PEPCK-c): 41
328115 (antisense eA*eG*eA*eA*eG*eG*eT*eG*eG*eG*eG*eA*eG*e[5mC]*eA*eG*e[5mC]*eG*eT*e[5mC]*eA) [compound 328115] | – | – | – | – | – | – | Follistatin mRNA expression (follistatin): 91; PEPCKc mRNA expression (PEPCK-c): 59
328125 (antisense eT*eA*eT*eG*eA*eA*eA*eT*eG*e[5mC]*e[5mC]*eA*eG*eA*eG*e[5mC]*eT*eG*e[5mC]*e[5mC]*eA) [compound 328125] | – | – | – | – | – | – | Follistatin mRNA expression (follistatin): 107; PEPCKc mRNA expression (PEPCK-c): 77
328677 (eT*e[5mC]*e[5mC]*eT*eG*dG*dA*dT*dG*dA*dT*dA*dT*d[5mC]*dT*eA*e[5mC]*e[5mC]*eT*e[5mC]; antisense) [compound 328677] | – | – | – | – | – | – | Follistatin (% UTC) (follistatin; [4]): 130 % UTC; Follistatin (% UTC) (follistatin; [5]): 118 % UTC; PEPCK-c (% UTC) (PEPCK-c; [4]): 145 % UTC; PEPCK-c (% UTC) (PEPCK-c; [5]): 117 % UTC
328685 (e[5mC]*eG*eG*e[5mC]*e[5mC]*dG*dG*dA*dG*d[5mC]*d[5mC]*dA*dT*dA*dG*eA*e[5mC]*eT*e[5mC]*eG; antisense) [compound 328685] | – | – | – | – | – | – | Follistatin (% UTC) (follistatin; [4]): 100 % UTC; Follistatin (% UTC) (follistatin; [5]): 157 % UTC; PEPCK-c (% UTC) (PEPCK-c; [4]): 219 % UTC; PEPCK-c (% UTC) (PEPCK-c; [5]): 184 % UTC
328691 (e[5mC]*e[5mC]*e[5mC]*e[5mC]*eA*dT*d[5mC]*dT*dT*dA*dG*d[5mC]*dA*dT*d[5mC]*eT*eA*eA*eG*eG) [compound 328691] | – | – | – | – | – | – | Follistatin (% UTC) (follistatin; [4]): 93 % UTC; Follistatin (% UTC) (follistatin; [5]): 104 % UTC; PEPCK-c (% UTC) (PEPCK-c; [4]): 108 % UTC; PEPCK-c (% UTC) (PEPCK-c; [5]): 97 % UTC
328759 (antisense eG*eA*eG*eG*eG*dA*dT*dT*dG*dT*dA*dT*dG*dA*dA*e[5mC]*eA*eT*e[5mC]*eT) [compound 328759] | – | – | – | – | – | – | Follistatin (% UTC) (follistatin; [4]): 266 % UTC; Follistatin (% UTC) (follistatin; [5]): 224 % UTC; PEPCK-c (% UTC) (PEPCK-c; [4]): 98 % UTC; PEPCK-c (% UTC) (PEPCK-c; [5]): 92 % UTC
338664 (antisense e[5mC]*eA*eG*eA*e[5mC]*eT*e[5mC]*e[5mC]*e[5mC]*eA*eA*e[5mC]*eT*eG*eA*e[5mC]*e[5mC]*eA*eG*eA) [compound 338664] | 93 | 84 | 75 | 76 | – | – | –
340927 (antisense eT*eG*eA*eG*e[5mC]*dT*dA*d[5mC]*dA*dG*dT*dG*d[5mC]*dT*dT*e[5mC]*eA*eT*e[5mC]*eT*e[5mC]*eA) [compound 340927] | 111 | 128 | 87 | 103 | – | – | –
341803 (antisense CCACACACTTCCTTACATTCCA; all 2'-MOE, all phosphorothioate, methylation of C not given here) [compound 341803] | – | – | – | – | 68 | 110 | –
341804 (antisense ATCTGCACTGTCAGCACTTT; all 2'-MOE, all phosphorothioate, methylation of C not given here) [compound 341804] | – | – | – | – | 63 | 44 | –
341805 (antisense ACCCTTATCAGTTCTCCGTCCA; all 2'-MOE, all phosphorothioate, methylation of C not given here) [compound 341805] | – | – | – | – | 63 | 40 | –
341806 (antisense GCCAATATTTCTGTGCTGCTA; all 2'-MOE, all phosphorothioate, methylation of C not given here) [compound 341806] | – | – | – | – | 75 | 79 | –
341807 (antisense CTGGGACTTTGTAGGCCAGTT; all 2'-MOE, all phosphorothioate, methylation of C not given here) [compound 341807] | – | – | – | – | 102 | 97 | –
